Data on four compounds can be found in US20230265151A1, “GIP/GLP1 CO-AGONIST COMPOUNDS” (priority 2020, published 2023).

Where two headings read alike, the source gives them in different places. *1 amine or outer side, *2 acyl side, *3 side chain or, on linkers, in order; H or OH if unused. Where a SMILES comes first, the peptide text is derived from it. Side-chain parts run from the residue outwards. [ ]: non-standard residue; d: D form. The star is where a group is joined. αMePhe(2-F) = C[C@](N)(Cc1ccccc1F)C(=O)O; γGlu = O=C(O)[C@H](CCC(=O)[*:2])N[*:1]; C14 diacid = O=C(O)CCCCCCCCCCCCC(=O)*; αMeF = C[C@](N)(Cc1ccccc1)C(=O)O; 4Pal = N[C@@H](Cc1ccncc1)C(=O)O; αMeL = CC(C)C[C@](C)(N)C(=O)O; Orn = NCCC[C@H](N)C(=O)O; AEEA = NCCOCCOCC(=O)O; Aib = CC(C)(N)C(=O)O

Common to all, as to type: cell-based
In one assay the target is T1, hGCGR (Homo sapiens, UniProt P47871).
T1 construct: expressed in transfected cells
T1 sequence (P47871 26-477): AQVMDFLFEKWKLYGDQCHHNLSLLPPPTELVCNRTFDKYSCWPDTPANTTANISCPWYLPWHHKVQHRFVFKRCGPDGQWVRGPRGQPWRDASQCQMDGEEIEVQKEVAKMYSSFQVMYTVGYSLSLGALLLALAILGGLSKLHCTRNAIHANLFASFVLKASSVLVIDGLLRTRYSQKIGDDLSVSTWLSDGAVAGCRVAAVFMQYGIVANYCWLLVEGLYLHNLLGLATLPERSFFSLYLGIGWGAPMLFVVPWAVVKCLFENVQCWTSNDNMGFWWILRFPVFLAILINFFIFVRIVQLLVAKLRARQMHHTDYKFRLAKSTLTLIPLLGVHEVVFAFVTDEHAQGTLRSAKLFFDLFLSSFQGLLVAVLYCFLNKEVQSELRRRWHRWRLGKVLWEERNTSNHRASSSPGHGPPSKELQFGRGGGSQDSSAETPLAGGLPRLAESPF
Put plainly: Functional cAMP formation (HTRF) in HEK-293 clonal cells expressing hGCGR, 0.1% bovine casein, without or with 1.0% human serum albumin. Conditions: read-out: hGCGR EC50, nM (SEM, n). Summed up: (§1)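 Cells were stimulated with peptide for 30 min at 37° C, then lysed in buffer carrying cAMP-d2 and anti-cAMP Eu3+-cryptate for a competitive HTRF read after at least 60 min at room temperature. The 665/620 nm ratio was converted to nM cAMP against a standard curve.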

In another assay the target is T2, hGIPR (Homo sapiens, UniProt P48546).
T2 construct: expressed in transfected cells
T2 sequence (P48546 22-466): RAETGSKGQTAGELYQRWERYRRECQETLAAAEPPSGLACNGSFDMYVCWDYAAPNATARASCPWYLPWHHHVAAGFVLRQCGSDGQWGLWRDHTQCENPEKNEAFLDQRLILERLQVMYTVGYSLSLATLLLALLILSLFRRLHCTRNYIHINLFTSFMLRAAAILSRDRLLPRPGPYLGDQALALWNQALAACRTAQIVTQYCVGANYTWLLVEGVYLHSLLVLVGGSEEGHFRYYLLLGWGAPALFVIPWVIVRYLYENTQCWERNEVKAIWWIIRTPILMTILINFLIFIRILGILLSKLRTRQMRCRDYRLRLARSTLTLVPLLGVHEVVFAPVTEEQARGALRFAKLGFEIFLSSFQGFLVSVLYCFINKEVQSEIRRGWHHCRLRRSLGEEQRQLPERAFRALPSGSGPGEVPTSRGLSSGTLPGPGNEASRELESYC
Kind of assay: Functional cAMP formation (HTRF) in HEK-293 clonal cells expressing hGIPR, 0.1% bovine casein, without or with 1.0% human serum albumin. Conditions: for Emax: read-out: hGIPR Emax, % ± SEM; for EC50: cAMP, 0.1% bovine casein (no human serum albumin), geometric mean, read-out: hGIPR EC50, nM (SEM, n). The gist of the method:
as §1

The next assay concerns the target hGLP-1R (Homo sapiens, UniProt P43220). Kind of assay: Functional cAMP formation (HTRF) in HEK-293 clonal cells expressing hGLP-1R, 0.1% bovine casein, without or with 1.0% human serum albumin. Conditions: 37° C.; for Emax: read-out: hGLP-1R Emax, % ± SEM; for EC50: geometric mean, read-out: hGLP-1R EC50, nM (SEM, n). Also on record: expressed in transfected cells. The gist of the method: as §1

The mark [1] stands for this setting: cAMP, incubated at 37° C., 0.1% bovine casein (no human serum albumin), geometric mean.
Where [2] appears, read: HEK293, percent of maximal response to GIP(1-42)NH2, 37° C., 0.1% bovine casein, arithmetic mean.
Where [3] appears, read: HEK293, percent of maximal response to GLP-1(7-36)NH2, 0.1% bovine casein, arithmetic mean.

hGLP-1R, sequence (P43220 24-463): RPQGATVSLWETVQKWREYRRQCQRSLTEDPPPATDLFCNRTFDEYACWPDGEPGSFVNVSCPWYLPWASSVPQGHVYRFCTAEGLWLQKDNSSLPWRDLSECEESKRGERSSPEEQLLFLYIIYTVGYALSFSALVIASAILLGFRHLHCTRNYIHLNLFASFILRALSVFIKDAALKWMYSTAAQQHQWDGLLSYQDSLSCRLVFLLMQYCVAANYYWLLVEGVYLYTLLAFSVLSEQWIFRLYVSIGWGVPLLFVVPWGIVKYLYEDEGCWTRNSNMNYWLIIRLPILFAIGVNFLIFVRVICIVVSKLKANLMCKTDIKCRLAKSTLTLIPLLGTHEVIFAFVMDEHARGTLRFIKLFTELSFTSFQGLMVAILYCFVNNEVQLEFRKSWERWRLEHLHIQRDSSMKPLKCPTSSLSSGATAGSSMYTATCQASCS

In the case of `CC[C@H](C)[C@H](NC(=O)[C@H](CC(C)C)NC(=O)[C@](C)(Cc1ccc(O)cc1)NC(=O)[C@@H](CCC(=O)O)NC(=O)[C@@H](NC(=O)[C@H](Cc1ccccc1)NC(=O)[C@H](CCC(=O)O)NC(=O)C(C)(C)NC(=O)[C@H](CCC(N)=O)NC(=O)[C@H](C)NC(=O)[C@H](CCCCNC(=O)COCCOCCNC(=O)COCCOCCNC(=O)CC[C@H](NC(=O)CCCCCCCCCCCCC(=O)O)C(=O)O)NC(=O)[C@H](CCCN)NC(=O)[C@H](CC(=O)O)NC(=O)[C@H](CC(C)C)NC(=O)[C@](C)(CC(C)C)NC(=O)[C@@H](NC(=O)C(C)(C)NC(=O)[C@H](Cc1ccncc1)NC(=O)[C@H](CC(=O)O)NC(=O)[C@H](CO)NC(=O)[C@@H](NC(=O)[C@](C)(Cc1ccccc1F)NC(=O)[C@@H](NC(=O)CNC(=O)[C@H](CCC(=O)O)NC(=O)C(C)(C)NC(=O)[C@@H](N)Cc1ccc(O)cc1)[C@@H](C)O)[C@@H](C)O)[C@@H](C)CC)[C@@H](C)CC)C(=O)N[C@@H](CCC(=O)O)C(=O)NCC(=O)NCC(=O)N1CCC[C@H]1C(=O)N[C@@H](CO)C(=O)N[C@@H](CO)C(=O)NCC(=O)N[C@@H](C)C(=O)N1CCC[C@H]1C(=O)N1CCC[C@H]1C(=O)N1CCC[C@H]1C(=O)N[C@@H](CO)C(=O)N[C@@H](CCCCNC(=O)COCCOCCNC(=O)COCCOCCNC(=O)CC[C@H](NC(=O)CCCCCCCCCCCCC(=O)O)C(=O)O)C(N)=O` [Example 359], the EC50 was > 10100 nM at hGCGR (cAMP, 37° C., 0.1% bovine casein (no human serum albumin), geometric mean); > 9950 nM at hGCGR (cAMP, 37° C., 0.1% bovine casein and 1.0% human serum albumin, geometric mean (SEM, n)); 0.0261 nM on hGIPR (37° C.); 1.18 nM on hGLP-1R (cAMP, 0.1% bovine casein (no human serum albumin)). Besides, the Emax was 81% at hGIPR (HEK293, cAMP, 37° C., 0.1% bovine casein and 1.0% human serum albumin, percent of maximal response to GIP(1-42)NH2); 95.1% on hGLP-1R (HEK293, cAMP, 0.1% bovine casein and 1.0% human serum albumin, percent of maximal response to GLP-1(7-36)NH2).

As for `CC[C@H](C)[C@H](NC(=O)[C@H](CC(C)C)NC(=O)[C@H](Cc1ccc(O)cc1)NC(=O)[C@H](CCCCNC(=O)COCCOCCNC(=O)COCCOCCNC(=O)CC[C@H](NC(=O)CCCCCCCCCCCCC(=O)O)C(=O)O)NC(=O)[C@@H](NC(=O)[C@](C)(Cc1ccccc1)NC(=O)[C@H](CCC(=O)O)NC(=O)C(C)(C)NC(=O)[C@H](CCC(N)=O)NC(=O)[C@H](C)NC(=O)[C@H](CCCCNC(=O)COCCOCCNC(=O)COCCOCCNC(=O)CC[C@H](NC(=O)CCCCCCCCCCCCC(=O)O)C(=O)O)NC(=O)[C@H](CCCN)NC(=O)[C@H](CC(=O)O)NC(=O)[C@H](CC(C)C)NC(=O)[C@](C)(CC(C)C)NC(=O)[C@@H](NC(=O)[C@H](CO)NC(=O)[C@H](Cc1ccncc1)NC(=O)[C@H](CC(=O)O)NC(=O)[C@H](CO)NC(=O)[C@@H](NC(=O)[C@](C)(Cc1ccccc1F)NC(=O)[C@@H](NC(=O)CNC(=O)[C@H](CCC(=O)O)NC(=O)C(C)(C)NC(=O)[C@@H](N)Cc1ccc(O)cc1)[C@@H](C)O)[C@@H](C)O)[C@@H](C)CC)[C@@H](C)CC)C(=O)N[C@@H](CCC(=O)O)C(=O)NCC(=O)NCC(=O)N1CCC[C@H]1C(=O)N[C@@H](CO)C(=O)N[C@@H](CO)C(=O)NCC(=O)N[C@@H](C)C(=O)N1CCC[C@H]1C(=O)N1CCC[C@H]1C(=O)N1CCC[C@H]1C(=O)N[C@@H](CO)C(N)=O` [Example 85] (H-Y[Aib]EGT[αMePhe(2-F)]TSD[4Pal]SI[αMeL]LD[Orn]K([AEEA-AEEA-γGlu-C14 diacid])AQ[Aib]E[αMeF]IK([AEEA-AEEA-γGlu-C14 diacid])YLIEGGPSSGAPPPS-NH2), the 50% effective concentration (EC50) is > 9950 nM on hGCGR (setting [1]) and 0.0312 nM on hGIPR (incubated at 37° C.). Further, the Emax on hGIPR (setting [2]) was 91.7%; on hGLP-1R (setting [3]) it was 95.3%.

For the compound `CC[C@H](C)[C@H](NC(=O)[C@H](CC(C)C)NC(=O)[C@](C)(Cc1ccc(O)cc1)NC(=O)[C@@H](CCC(=O)O)NC(=O)[C@@H](NC(=O)[C@H](CC1CCCCC1)NC(=O)[C@H](CCC(=O)O)NC(=O)C(C)(C)NC(=O)[C@H](CCC(N)=O)NC(=O)[C@H](C)NC(=O)[C@H](CCCCNC(=O)COCCOCCNC(=O)COCCOCCNC(=O)CC[C@H](NC(=O)CCCCCCCCCCCCC(=O)O)C(=O)O)NC(=O)[C@H](CCCN)NC(=O)[C@H](CC(=O)O)NC(=O)[C@H](CC(C)C)NC(=O)[C@](C)(CC(C)C)NC(=O)[C@@H](NC(=O)[C@H](CO)NC(=O)[C@H](Cc1ccncc1)NC(=O)[C@H](CC(=O)O)NC(=O)[C@H](CO)NC(=O)[C@@H](NC(=O)[C@](C)(Cc1ccccc1F)NC(=O)[C@@H](NC(=O)CNC(=O)[C@H](CCC(=O)O)NC(=O)C(C)(C)NC(=O)[C@@H](N)Cc1ccc(O)cc1)[C@@H](C)O)[C@@H](C)O)[C@@H](C)CC)[C@@H](C)CC)C(=O)N[C@@H](CCC(=O)O)C(=O)NCC(=O)NCC(=O)N[C@@H](CCCCNC(=O)COCCOCCNC(=O)COCCOCCNC(=O)CC[C@H](NC(=O)CCCCCCCCCCCCC(=O)O)C(=O)O)C(=O)N[C@@H](CO)C(=O)N[C@@H](CO)C(=O)NCC(=O)N[C@@H](C)C(=O)N1CCC[C@H]1C(=O)N1CCC[C@H]1C(=O)N1CCC[C@H]1C(=O)N[C@@H](CO)C(N)=O` [Example 148], the EC50 was > 9950 nM on hGCGR (setting [1]) and 0.0209 nM on hGIPR (incubated at 37° C.). At hGLP-1R (setting [3]), the Emax came out at 94.5%.

With `CC[C@H](C)[C@H](NC(=O)[C@H](CC(C)C)NC(=O)[C@](C)(Cc1ccc(O)cc1)NC(=O)[C@@H](CCC(=O)O)NC(=O)[C@@H](NC(=O)[C@H](Cc1ccccc1)NC(=O)[C@H](CCC(=O)O)NC(=O)C(C)(C)NC(=O)[C@H](CCC(N)=O)NC(=O)[C@H](C)NC(=O)[C@H](CCCCNC(=O)COCCOCCNC(=O)COCCOCCNC(=O)CC[C@H](NC(=O)CCCCCCCCCCCCC(=O)O)C(=O)O)NC(=O)[C@H](CCCN)NC(=O)[C@H](CC(=O)O)NC(=O)[C@H](CC(C)C)NC(=O)[C@](C)(CC(C)C)NC(=O)[C@@H](NC(=O)[C@H](CN)NC(=O)[C@@H](NC(=O)[C@H](CC(=O)O)NC(=O)[C@H](CO)NC(=O)[C@@H](NC(=O)[C@](C)(Cc1ccccc1F)NC(=O)[C@@H](NC(=O)CNC(=O)[C@H](CCC(=O)O)NC(=O)C(C)(C)NC(=O)[C@@H](N)Cc1ccc(O)cc1)[C@@H](C)O)[C@@H](C)O)C(C)C)[C@@H](C)CC)[C@@H](C)CC)C(=O)N[C@@H](CCC(=O)O)C(=O)NCC(=O)NCC(=O)N[C@@H](CCCCNC(=O)COCCOCCNC(=O)COCCOCCNC(=O)CC[C@H](NC(=O)CCCCCCCCCCCCC(=O)O)C(=O)O)C(=O)N[C@@H](CO)C(=O)N[C@@H](CO)C(=O)NCC(=O)N[C@@H](C)C(=O)N1CCC[C@H]1C(=O)N1CCC[C@H]1C(=O)N1CCC[C@H]1C(=O)N[C@@H](CO)C(N)=O` [Example 201], the EC50 is > 9950 nM at hGCGR (0.1% bovine casein and 1.0% human serum albumin, 37° C., geometric mean); > 9950 nM on hGCGR (setting [1]); 25.1 nM on hGLP-1R (0.1% bovine casein and 1.0% human serum albumin). Also, the Emax at hGIPR (HEK293, 0.1% bovine casein and 1.0% human serum albumin, 37° C., percent of maximal response to GIP(1-42)NH2) is 80.5%; at hGIPR (setting [2]) it was 92.2 ± 3.26%; at hGLP-1R (setting [3]), 105 ± 4.51%.
